# Tests used:
# brain slices = test: Uptake of FDP in brain slices in vitro; assay type: in vitro ADME, Sprague-Dawley rats; settings: incubation 1 hour in 500 μg ml-1 FDP, then washed
# Experimental: Actual levels of FDP were determined by monitoring absorbance of reduced nicotinamide adenine dinucleotide (NADH) and treating the sample with aldolase (EC 4.1.2.13, 45 units mg-1 diluted 1:27 with distilled water), the enzyme which cleaves FDP into dihydroxyacetone phosphate (DAP) and D-glyceraldehyde 3-phosphate (GAP). DAP and GAP are interconverted by the enzyme triosephosphate isomerase (TIM, EC 5.3.3.1, 5290 units mg-1 diluted 1:120 with distilled water). Glycerol-3-phosphate dehydrogenase (GDH, EC 1.1.1.8, 252 units mg-1 diluted 1:100 with distilled water) catalyzes the reduction of DAP by NADH. […] After 5 min the absorbance was read 3 times at 340 nm, each reading 3 min apart. The average of these readings is the initial absorbance (Ai). This step removes any DAP or GAP in the sample and determines the baseline absorbance. […] Nine minutes after addition of the aldolase, the final absorbance (Af) was determined by 3 readings at 340 nm, each 6 minutes apart. The concentration of FDP in the sample was proportional to the difference in the initial and final absorbance. […] Levels of FDP in blood were determined per ml, while levels in tissue samples were determined as a function of tissue weight.
# Additional experiments determined the uptake of FDP in brain slices in vitro. […]
# [1] = cited from earlier work
smiles,measurement,setting,value
"O=C(COP(=O)(O)O)[C@@H](O)[C@H](O)[C@H](O)COP(=O)(O)O [F1,6BP, Fructose-1,6-bisphosphate]",tissue levels of FDP in brain slices,brain slices,0.22 ± 0.013 mg/g
same,toxicity in humans,[1]; administered to humans,no reported toxicity
same,safety in healthy volunteers,[1]; doses from 5 to 15 g,safe

# From patent publication US20100197610A1, “FRUCTOSE 1, 6 BISPHOSPHATE - A NOVEL ANTICONVULSANT DRUG” (Baylor College of Medicine, priority 2007, published 2010)
